# Assay results taken from patent US20120245137A1 (Zalicus Pharmaceuticals Ltd., priority 2009, published 2012).
# Biological target: N-type calcium channel subunits (α1B, α2δ, and β3a) (Homo sapiens, UniProt Q00975)
# Assay: Block of Cav2.2 channel, whole cell voltage clamp, manual and PatchXpress
# Format: cell-based
# Details: Table 5; table follows Assay Example 3 (whole cell voltage clamp / PatchXpress); assay not given
# Experimental: Cells are grown either on poly-D-lysine coated coverglass (manual EP) or in TIS culture plates (PatchXpress). For the PatchExpress, cells are released from the flask using trypsin. In both cases, the […] solution is (in mM): 130 […], 10 EGTA, 10 HEPES, 2 MgCl2, 3 MgATP, pH 7.3 with CsOH.
# Microelectrodes are fabricated from borosilicate glass and fire-polished. […] The reference electrode is a silver-silver chloride pellet. Voltages are not corrected for the liquid junction potential between the internal and external solutions and leak is subtracted using the P/n procedure. Solutions are applied to cells by bath perfusion via gravity. The experimental chamber volume is—0.2 mL. and the perfusion rate is 0.5-2 mL/min. Flow of suction through the chamber is maintained at all times. Measurement of current amplitudes is performed with […] software (HEKA Elektronik).
# PatchXpress (Molecular Devices) is a 16-well whole-cell automated patch clamp device that operates asynchronously with fully integrated fluidics. […] Capacitance and series resistance compensation is automated. No correction for liquid junction potentials is employed. Leak is subtracted using the P/n procedure. Compounds are added to cells with a pipettor from a 96-well compound plate. Voltage protocols and the recording of membrane currents are performed using the PatchXpress software/hardware system. Current amplitudes are calculated with DataXpress software.
# In both manual and automated patch clamp, cells are voltage clamped at […] or −90 m V and 50 ms pulses to +20 mV are applied every 15 sec (0.067 Hz). Compounds are added in escalating doses to measure % inhibition. Percent inhibition is calculated from the ratio of the curerent amplitude in the presence and absence of compound. When multiple doses are achieved per cell, IC50 values are calculated.
# Sequence of N-type calcium channel subunits (α1B, α2δ, and β3a) (Q00975 whole entry): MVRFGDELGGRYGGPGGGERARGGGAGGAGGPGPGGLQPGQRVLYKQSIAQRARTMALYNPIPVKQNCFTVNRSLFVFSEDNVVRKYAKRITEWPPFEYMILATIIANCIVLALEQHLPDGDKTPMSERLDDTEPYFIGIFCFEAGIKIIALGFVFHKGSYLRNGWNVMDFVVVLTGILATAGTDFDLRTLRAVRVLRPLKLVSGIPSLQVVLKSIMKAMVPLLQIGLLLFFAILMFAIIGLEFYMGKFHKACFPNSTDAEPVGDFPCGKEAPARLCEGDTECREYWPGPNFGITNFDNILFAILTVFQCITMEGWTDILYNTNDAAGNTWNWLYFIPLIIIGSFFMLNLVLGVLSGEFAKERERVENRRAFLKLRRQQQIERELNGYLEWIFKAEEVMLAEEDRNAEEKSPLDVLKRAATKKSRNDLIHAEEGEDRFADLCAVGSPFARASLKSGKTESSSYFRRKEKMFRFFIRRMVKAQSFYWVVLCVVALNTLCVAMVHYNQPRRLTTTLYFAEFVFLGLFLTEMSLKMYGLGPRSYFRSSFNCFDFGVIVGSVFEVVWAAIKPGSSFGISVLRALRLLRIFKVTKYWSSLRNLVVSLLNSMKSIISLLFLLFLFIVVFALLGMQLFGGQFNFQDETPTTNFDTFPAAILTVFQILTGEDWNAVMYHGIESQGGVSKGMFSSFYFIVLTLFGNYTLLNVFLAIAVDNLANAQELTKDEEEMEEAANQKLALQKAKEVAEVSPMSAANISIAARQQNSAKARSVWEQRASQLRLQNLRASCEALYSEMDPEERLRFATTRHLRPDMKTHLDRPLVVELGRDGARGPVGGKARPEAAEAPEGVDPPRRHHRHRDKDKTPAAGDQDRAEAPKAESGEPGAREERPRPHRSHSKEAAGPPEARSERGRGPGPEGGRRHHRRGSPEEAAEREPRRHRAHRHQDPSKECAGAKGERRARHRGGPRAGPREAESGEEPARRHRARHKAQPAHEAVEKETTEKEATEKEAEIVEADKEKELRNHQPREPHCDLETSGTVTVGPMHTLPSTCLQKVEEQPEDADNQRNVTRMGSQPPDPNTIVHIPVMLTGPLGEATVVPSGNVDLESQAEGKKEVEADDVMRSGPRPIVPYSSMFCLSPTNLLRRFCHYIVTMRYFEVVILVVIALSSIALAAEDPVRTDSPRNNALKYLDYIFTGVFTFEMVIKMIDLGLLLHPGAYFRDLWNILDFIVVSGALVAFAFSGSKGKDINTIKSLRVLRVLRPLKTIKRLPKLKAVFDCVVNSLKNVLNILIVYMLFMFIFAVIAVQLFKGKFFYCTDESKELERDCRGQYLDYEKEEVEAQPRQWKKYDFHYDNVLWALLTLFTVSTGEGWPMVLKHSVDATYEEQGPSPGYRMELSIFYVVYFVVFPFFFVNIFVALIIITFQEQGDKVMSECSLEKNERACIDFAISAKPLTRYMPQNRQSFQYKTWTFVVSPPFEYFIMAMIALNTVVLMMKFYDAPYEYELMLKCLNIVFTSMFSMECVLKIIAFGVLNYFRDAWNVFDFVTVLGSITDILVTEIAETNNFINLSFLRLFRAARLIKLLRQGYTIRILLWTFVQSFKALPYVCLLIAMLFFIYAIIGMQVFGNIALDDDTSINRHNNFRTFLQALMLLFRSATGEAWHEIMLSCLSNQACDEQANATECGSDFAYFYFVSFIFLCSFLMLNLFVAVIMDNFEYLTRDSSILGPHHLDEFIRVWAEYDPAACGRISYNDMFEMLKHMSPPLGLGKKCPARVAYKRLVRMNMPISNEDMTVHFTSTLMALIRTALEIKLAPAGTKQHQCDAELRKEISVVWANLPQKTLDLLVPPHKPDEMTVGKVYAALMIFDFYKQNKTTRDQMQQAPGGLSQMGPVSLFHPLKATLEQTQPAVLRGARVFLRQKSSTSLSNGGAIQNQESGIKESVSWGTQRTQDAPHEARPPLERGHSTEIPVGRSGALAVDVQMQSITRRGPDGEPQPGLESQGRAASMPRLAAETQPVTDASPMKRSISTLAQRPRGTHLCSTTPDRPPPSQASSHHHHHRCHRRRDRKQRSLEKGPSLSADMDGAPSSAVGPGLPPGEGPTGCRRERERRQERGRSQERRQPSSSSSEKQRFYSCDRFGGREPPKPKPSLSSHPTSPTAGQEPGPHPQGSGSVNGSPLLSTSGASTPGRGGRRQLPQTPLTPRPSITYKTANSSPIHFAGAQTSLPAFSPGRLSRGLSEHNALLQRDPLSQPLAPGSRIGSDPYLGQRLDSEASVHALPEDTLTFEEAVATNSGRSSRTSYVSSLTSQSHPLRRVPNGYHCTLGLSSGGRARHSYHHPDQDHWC
# Sequence of N-type calcium channel subunits (α1B, α2δ, and β3a) (P54289 25-1103 partner): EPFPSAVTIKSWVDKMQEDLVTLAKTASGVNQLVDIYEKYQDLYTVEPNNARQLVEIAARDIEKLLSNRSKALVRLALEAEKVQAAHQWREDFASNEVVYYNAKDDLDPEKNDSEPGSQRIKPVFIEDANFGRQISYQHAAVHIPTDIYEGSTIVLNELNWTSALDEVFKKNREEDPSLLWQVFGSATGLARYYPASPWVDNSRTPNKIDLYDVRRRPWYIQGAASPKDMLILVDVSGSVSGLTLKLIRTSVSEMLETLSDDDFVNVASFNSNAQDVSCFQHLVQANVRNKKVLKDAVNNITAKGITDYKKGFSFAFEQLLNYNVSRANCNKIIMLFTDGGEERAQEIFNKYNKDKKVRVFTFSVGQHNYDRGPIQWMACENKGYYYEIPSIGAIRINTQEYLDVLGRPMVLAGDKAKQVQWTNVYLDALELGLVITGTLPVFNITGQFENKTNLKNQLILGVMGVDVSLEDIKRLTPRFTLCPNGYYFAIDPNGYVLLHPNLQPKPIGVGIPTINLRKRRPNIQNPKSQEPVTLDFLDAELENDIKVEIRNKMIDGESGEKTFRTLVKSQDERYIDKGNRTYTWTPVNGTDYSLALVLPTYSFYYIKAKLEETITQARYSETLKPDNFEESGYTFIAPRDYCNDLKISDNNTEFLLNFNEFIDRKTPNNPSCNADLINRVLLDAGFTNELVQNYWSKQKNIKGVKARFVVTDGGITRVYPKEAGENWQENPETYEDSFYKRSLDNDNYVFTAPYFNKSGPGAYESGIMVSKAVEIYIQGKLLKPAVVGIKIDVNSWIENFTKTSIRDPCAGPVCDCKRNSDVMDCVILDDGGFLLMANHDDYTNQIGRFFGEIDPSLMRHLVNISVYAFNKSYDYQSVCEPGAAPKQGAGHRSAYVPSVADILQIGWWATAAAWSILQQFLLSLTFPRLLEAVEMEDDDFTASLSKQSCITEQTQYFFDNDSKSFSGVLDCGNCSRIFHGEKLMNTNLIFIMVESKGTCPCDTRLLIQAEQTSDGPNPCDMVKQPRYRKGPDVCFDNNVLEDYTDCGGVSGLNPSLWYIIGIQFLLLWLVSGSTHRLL
# Sequence of N-type calcium channel subunits (α1B, α2δ, and β3a) (P54284 whole entry partner): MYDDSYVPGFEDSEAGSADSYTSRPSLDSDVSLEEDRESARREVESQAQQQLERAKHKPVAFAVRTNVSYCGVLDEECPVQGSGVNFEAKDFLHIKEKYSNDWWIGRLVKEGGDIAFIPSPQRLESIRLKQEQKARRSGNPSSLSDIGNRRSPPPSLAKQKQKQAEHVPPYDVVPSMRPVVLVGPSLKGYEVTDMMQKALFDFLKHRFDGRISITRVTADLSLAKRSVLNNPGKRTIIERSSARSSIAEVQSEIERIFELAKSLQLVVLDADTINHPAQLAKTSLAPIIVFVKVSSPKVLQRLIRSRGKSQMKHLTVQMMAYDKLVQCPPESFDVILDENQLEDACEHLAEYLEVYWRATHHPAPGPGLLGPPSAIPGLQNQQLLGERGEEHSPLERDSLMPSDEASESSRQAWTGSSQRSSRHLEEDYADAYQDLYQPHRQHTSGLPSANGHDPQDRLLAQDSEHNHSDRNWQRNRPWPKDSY
row,Molecule,IC50
1,"O=C(CCC(F)(F)F)NC1CCC(S(=O)(=O)c2cccc(C(F)(F)F)c2)CC1 (stereo not shown) [Compound 12, 4,4,4-trifluoro-N-(4-(3-(trifluoromethyl)phenylsulfonyl)cyclohexyl)butanamide]",1940 nM
2,"O=C(NC[C@H]1CC[C@@H](S(=O)(=O)c2cccc(C(F)(F)F)c2)CC1)c1cc(C(F)(F)F)n[nH]1 [Compound 34, 3-(trifluoromethyl)-N-(((1S,4S)-4-(3-(trifluoromethyl)phenylsulfonyl)cyclohexyl)methyl)-1H-pyrazole-5-carboxamide]",640 nM
3,"O=C(N[C@H]1CC[C@@H](S(=O)(=O)c2cccc(C(F)(F)F)c2)CC1)c1cc(F)cc(Cl)c1 [Compound 40, 3-chloro-5-fluoro-N-((1S,4S)-4-(3-(trifluoromethyl)phenylsulfonyl)cyclohexyl)benzamide]",170 nM
4,"O=C(N[C@H]1CC[C@@H](S(=O)(=O)c2cccc(C(F)(F)F)c2)CC1)C1CCOCC1 [Compound 44, N-((1S,4S)-4-(3-(trifluoromethyl)phenylsulfonyl)cyclohexyl)tetrahydro-2H-pyran-4-carboxamide]",5930 nM
5,"O=C(CN[C@H]1CC[C@@H](S(=O)(=O)c2cccc(C(F)(F)F)c2)CC1)N1CCOCC1 [Compound 53, 1-morpholino-2-((1S,4S)-4-(3-(trifluoromethyl)phenylsulfonyl)cyclohexylamino)ethanone]",4720 nM
6,"O=C(N[C@H]1CC[C@H](S(=O)(=O)c2cccc(C(F)(F)F)c2)CC1)C1CCOCC1 [Compound 63, N-((1R,4R)-4-(3-(trifluoromethyl)phenylsulfonyl)cyclohexyl)tetrahydro-2H-pyran-4-carboxamide]",9980 nM
7,"CCN(CC)C(=O)CN[C@H]1CC[C@H](S(=O)(=O)c2cccc(C(F)(F)F)c2)CC1 [Compound 71, N,N-diethyl-2-((1R,4R)-4-(3-(trifluoromethyl)phenylsulfonyl)cyclohexylamino)acetamide]",5870 nM
8,"CC(C)NC(=O)CN[C@H]1CC[C@H](S(=O)(=O)c2cccc(C(F)(F)F)c2)CC1 [Compound 72, N-isopropyl-2-((1R,4R)-4-(3-(trifluoromethyl)phenylsulfonyl)cyclohexylamino)acetamide]",8580 nM
9,"O=C(CN[C@H]1CC[C@H](S(=O)(=O)c2cccc(C(F)(F)F)c2)CC1)Nc1ccccn1 [Compound 77, N-(pyridin-2-yl)-2-((1R,4R)-4-(3-(trifluoromethyl)phenylsulfonyl)cyclohexylamino)acetamide]",740 nM
10,"CC1(CNC(=O)c2nc3ccc(C(F)(F)F)cc3[nH]2)CCC(F)(S(=O)(=O)c2cccc(C(F)(F)F)c2)CC1 (stereo not shown) [Compound 156, N-((4-fluoro-1-methyl-4-(3-(trifluoromethyl)phenylsulfonyl)cyclohexyl)methyl)-6-(trifluoromethyl)-1H-benzo[d]imidazole-2-carboxamide]",1230 nM
11,"COc1cc(C(=O)NCC2(C)CCC(F)(S(=O)(=O)c3cccc(C(F)(F)F)c3)CC2)ccn1 (stereo not shown) [Compound 157, N-((4-fluoro-1-methyl-4-(3-(trifluoromethyl)phenylsulfonyl)cyclohexyl)methyl)-2-methoxyisonicotinamide]",1030 nM
12,"CC(C)(C)NCC(=O)N[C@H]1CC[C@H](CS(=O)(=O)c2cccc(C(F)(F)F)c2)CC1 [Compound 160, 2-(tert-butylamino)-N-((1R,4R)-4-((3-(trifluoromethyl)phenylsulfonyl)methyl)cyclohexyl)acetamide]",1990 nM
13,"CN(CC(=O)N[C@H]1CC[C@H](CS(=O)(=O)c2cccc(C(F)(F)F)c2)CC1)C(C)(C)C [Compound 161, 2-(tert-butyl(methyl)amino)-N-((1R,4R)-4-((3-(trifluoromethyl)phenylsulfonyl)methyl)cyclohexyl)acetamide]",2450 nM
14,"O=C(CN1CCCCC1)N[C@H]1CC[C@H](CS(=O)(=O)c2cccc(C(F)(F)F)c2)CC1 [Compound 164, 2-(piperidin-1-yl)-N-((1R,4R)-4-((3-(trifluoromethyl)phenylsulfonyl)methyl)cyclohexyl)acetamide]",1810 nM
15,"O=C(N[C@H]1CC[C@H](CS(=O)(=O)c2cccc(C(F)(F)F)c2)CC1)c1cnccc1C(F)(F)F [Compound 169, 4-(trifluoromethyl)-N-((1R,4R)-4-((3-(trifluoromethyl)phenylsulfonyl)methyl)cyclohexyl)nicotinamide]",7110 nM
16,"O=C(N[C@H]1CC[C@H](CS(=O)(=O)c2cccc(C(F)(F)F)c2)CC1)c1nsc(Cl)c1Cl [Compound 170, 4,5-dichloro-N-((1R,4R)-4-((3-(trifluoromethyl)phenylsulfonyl)methyl)cyclohexyl)isothiazole-3-carboxamide]",4920 nM
17,"O=C(N[C@H]1CC[C@H](CS(=O)(=O)c2cccc(C(F)(F)F)c2)CC1)c1ccc(OCC(F)(F)F)nc1 [Compound 171, 6-(2,2,2-trifluoroethoxy)-N-((1R,4R)-4-((3-(trifluoromethyl)phenylsulfonyl)methyl)cyclohexyl)nicotinamide]",480 nM
18,"O=C(N[C@H]1CC[C@H](CS(=O)(=O)c2cccc(C(F)(F)F)c2)CC1)c1ccnc(C(F)(F)F)c1 [Compound 176, 2-(trifluoromethyl)-N-((1R,4R)-4-((3-(trifluoromethyl)phenylsulfonyl)methyl)cyclohexyl)isonicotinamide]",9440 nM
19,"O=C(N[C@H]1CC[C@H](CS(=O)(=O)c2cccc(C(F)(F)F)c2)CC1)c1cncc(C(F)(F)F)c1 [Compound 177, 5-(trifluoromethyl)-N-((1R,4R)-4-((3-(trifluoromethyl)phenylsulfonyl)tmehyl)cyclohexyl)nicotinamide]",2060 nM
20,"O=C(N[C@H]1CC[C@H](S(=O)(=O)c2cccc(C(F)(F)F)c2)CC1)c1ccnn1CC(F)(F)F [Compound 180, 1-(2,2,2-trifluoroethyl)-N-((1R,4R)-4-(3-(trifluoromethyl)phenylsulfonyl)cyclohexyl)-1H-pyrazole-5-carboxamide]",3350 nM

# Other lines, results leading:
row,IC50,Molecule
1,1250 nM,"6-(trifluoromethyl)-N-((1S,4S)-4- (3-(trifluoromethyl)phenylsulfonyl) cyclohexyl)nicotinamide [Compound 199]"
2,1830 nM,"O=C(N[C@H]1CC[C@H](S(=O)(=O)c2cccc(C(F)(F)F)c2)CC1)c1ccnc(Cl)c1 [Compound 181, 2-chloro-N-((1R,4R)-4-(3-(trifluoromethyl)phenylsulfonyl)cyclohexyl)isonicotinamide]"
3,3110 nM,O=C(N[C@H]1CC[C@H](S(=O)(=O)c2cccc(C(F)(F)F)c2)CC1)c1ccc(OCC(F)(F)F)nc1 [Compound 184]
4,1630 nM,"Cc1cc(C(=O)N[C@H]2CC[C@H](S(=O)(=O)c3cccc(C(F)(F)F)c3)CC2)c(C(F)(F)F)o1 [Compound 185, 5-methyl-2-(trifluoromethyl)-N-((1R,4R)-4-(3-(trifluoromethyl)phenylsulfonyl)cyclohexyl)furan-3-carboxamide]"
5,5840 nM,"O=C(N[C@H]1CC[C@H](S(=O)(=O)c2cccc(C(F)(F)F)c2)CC1)c1ccc(C(F)(F)F)nc1 [Compound 186, 6-(trifluoromethyl)-N-((1R,4R)-4-(3-(trifluoromethyl)phenylsulfonyl)cyclohexyl)nicotinamide]"
6,1540 nM,"O=C(N[C@H]1CC[C@H](S(=O)(=O)c2cccc(C(F)(F)F)c2)CC1)c1ccnc(C(F)(F)F)c1 [Compound 189, 2-(trifluoromethyl)-N-((1R,4R)-4-(3-(trifluoromethyl)phenylsulfonyl)cyclohexyl)isonicotinamide]"
7,1220 nM,"CC(C)(C)S(=O)(=O)c1ccsc1C(=O)N[C@H]1CC[C@H](S(=O)(=O)c2cccc(C(F)(F)F)c2)CC1 [Compound 191, 3-(tert-butylsulfonyl)-N-((1R,4R)-4-(3-(trifluoromethyl)phenylsulfonyl)cyclohexyl)thiophene-2-carboxamide]"
8,1330 nM,"O=C(N[C@H]1CC[C@@H](S(=O)(=O)c2cccc(C(F)(F)F)c2)CC1)c1ccnc(Cl)c1 [Compound 194, 2-chloro-N-((1S,4S)-4-(3-(trifluoromethyl)phenylsulfonyl)cyclohexyl)isonicotinamide]"
9,3150 nM,"O=C(N[C@H]1CC[C@@H](S(=O)(=O)c2cccc(C(F)(F)F)c2)CC1)c1cnccc1C(F)(F)F [Compound 195, 4-(trifluoromethyl)-N-((1S,4S)-4-(3-(trifluoromethyl)phenylsulfonyl)cyclohexyl)nicotinamide]"
10,1860 nM,"O=C(N[C@H]1CC[C@@H](S(=O)(=O)c2cccc(C(F)(F)F)c2)CC1)c1ccnc(F)c1 [Compound 201, 2-fluoro-N-((1S,4S)-4-(3-(trifluoromethyl)phenylsulfonyl)cyclohexyl)isonicotinamide]"
11,1700 nM,"O=C(N[C@H]1CC[C@@H](S(=O)(=O)c2cccc(C(F)(F)F)c2)CC1)c1cnc(C(F)(F)F)nc1 [Compound 205, 2-(trifluoromethyl)-N-((1S,4S)-4-(3-(trifluoromethyl)phenylsulfonyl)cyclohexyl)pyrimidine-5-carboxamide]"
